PubChem BioAssay AID1959 (Broad Institute, 2009)
The source made the active and inactive calls.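 How the source made its calls: active means growth-inhibition EC50 no more than tenfold above the top tested dose; inconclusive means flat fit between 30% and 70% inhibition, or unreliable fit; inactive means EC50 more than tenfold above the top tested dose.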

system: E. coli NEB5alpha growth, BacTiter-Glo luminescence, 4 h; test: Escherichia coli growth inhibition, dose response, counter-screen for MEX-5/POS-1 RNA-binding inhibitor project, luminescence, NEB5alpha (AID 1959);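 further: pUC19-transformed ampicillin-resistant cells grown in LB with ampicillin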

Row | SMILES | EC50
1 | Cc1ccc2c(c1)C1C=CCC1C(C(=O)NCCCN1CCOCC1)N2 (configuration not stated) | > 11 µM (inactive)
2 | CC1=NN(c2cccc(C(=O)O)c2)C(=O)/C1=C\C=C\c1ccco1 | > 11 µM (inactive)
3 | CCOc1ccc(N/C(=C(/C(Cl)=C(Cl)Cl)[N+](=O)[O-])n2cncn2)cc1 | > 11 µM (inactive)
4 | CCOc1ccc(S(=O)(=O)Nc2cc(SCC(=O)O)c(O)c3ccccc23)cc1 | > 11 µM (inactive)
5 | Cc1ccccc1C1=N/C(=C/c2cccs2)C(=O)O1 | > 11 µM (inactive)
6 | O=c1[nH]c(=O)n(-c2ccc(F)cc2)c(O)c1C=Nc1ccccc1N1CCCC1 | > 11 µM (inactive)
7 | CCOc1ccc(-c2nn(-c3ccccc3)cc2/C=C2\SC(=S)N(C3CCS(=O)(=O)C3)C2=O)cc1 (configuration not stated) | > 11 µM (inactive)
8 | O=c1[nH]c(=O)n(-c2cccc(F)c2)c(O)c1/C=C1\C=Nc2ccccc21 | > 11 µM (inactive)
9 | O=C1NC(=S)N(c2ccccc2)C(=O)/C1=C/c1ccco1 | > 11 µM (inactive)
10 | CC(C)C(C(=O)O)N1C(=O)/C(=C/C=C/c2ccco2)SC1=S (configuration not stated) | > 11 µM (inactive)
11 | CCCn1c(=N)c(C(=O)NCC2CCCO2)cc2c(=O)n3cccc(C)c3nc21 (configuration not stated) | > 11 µM (inactive)
12 | Oc1cccc(/C=N/N=C/c2cccc(O)c2O)c1O | > 11 µM (inactive)
13 | COc1ccc(N2C(=O)/C(=C/c3ccc(C)o3)C(=O)NC2=S)c(OC)c1 | > 11 µM (inactive)
14 | CC1=C(C#N)C(=O)NC(=O)/C1=C\c1ccc(-c2cc(C)c(C)cc2[N+](=O)[O-])o1 | > 11 µM (inactive)
15 | O=C(O)c1cccc(-n2cccc2C=C2C(=O)c3ccccc3C2=O)c1 | > 11 µM (inactive)
16 | COc1ccc(/C=C/c2ccc3c(Br)ccc(O)c3n2)cc1 | > 11 µM (inactive)
17 | CCOc1cc(/C=C2\C(=O)NC(=O)N(CCc3ccc(F)cc3)C2=O)ccc1O | > 11 µM (inactive)
18 | N#C/C(=C/c1cccn1-c1cccc(C(=O)O)c1)c1ccc(Cl)cc1 | > 11 µM (inactive)
19 | COc1cc([N+](=O)[O-])cc(/C=N/NC(=O)CC#N)c1O | > 11 µM (inactive)
20 | O=c1cc(-c2ccccc2Cl)oc2c(NS(=O)(=O)c3cc(Cl)cc(Cl)c3O)ccc(O)c12 | > 11 µM (inactive)
21 | COC(=O)c1ccccc1-n1c(CCC(=O)O)ccc1-c1ccc(F)cc1 | > 11 µM (inactive)
22 | O=C1c2ccccc2C(=O)C1c1ccc2ccccc2n1 | > 11 µM (inactive)
23 | COc1ccc2nc3cc(Cl)ccc3c(Nc3cc(CN4CCCC4)c(O)c(CN4CCCC4)c3)c2n1 | > 11 µM (inactive)

Row | SMILES | EC50
24 | O=C(O)C(=O)/C(=C\c1ccc(Cl)cc1)c1ccc2ccccc2n1 | > 11 µM (inactive)
25 | COc1cc(N=Cc2c(O)c3ccccc3oc2=O)c(OC)cc1Cl | > 11 µM (inactive)
26 | C=CCN1C=C2C(=O)C(C)(OC(=O)CCC(=O)OC)C(=O)C(Br)=C2C=C1c1ccc(OC)cc1 (configuration not stated) | > 11 µM (inactive)
27 | O=C(NNC(=O)c1ccccc1[N+](=O)[O-])c1csc(N2CCOCC2)n1 | > 11 µM (inactive)
28 | Cc1cc(=O)oc2c(CN3CCC(C)CC3)c(O)c(Cl)cc12 | > 11 µM (inactive)
29 | CN(CC(=O)NCc1ccccn1)S(=O)(=O)c1ccc(Br)cc1 | > 11 µM (inactive)
30 | O=C(O)c1ccc(S(=O)(=O)/N=C2\C=C(Nc3ccccc3F)C(=O)c3ccccc32)cc1 | > 11 µM (inactive)
31 | COC1(OC)N=C(N)C2(C#N)C(c3ccc4c(c3)OCO4)C12C#N (configuration not stated) | > 11 µM (inactive)
32 | CC(C)OCC(O)CN1CCN(CCN2C(=O)c3cccc4cccc(c34)C2=O)CC1 (configuration not stated) | > 11 µM (inactive)
33 | Oc1ccc(/C=N/Nc2ccc(Cl)nn2)c(O)c1O | > 11 µM (inactive)
34 | NC(=O)c1cccc(N=Cc2cc(Cl)cc(Cl)c2O)c1 | > 11 µM (inactive)
35 | Oc1ccc(O)c(-c2cnns2)c1 | > 11 µM (inactive)
36 | Cc1[nH][nH]c(=O)c1/C=N/N1CCOCC1 | > 11 µM (inactive)
37 | CCn1c(/C=C/c2c(C)[nH]c3ccccc23)nc2ccccc2c1=O | > 11 µM (inactive)
38 | Cc1cc(C)c(-n2c(O)c(/C=N/NC(=O)c3ccncc3)c(=O)[nH]c2=O)c(C)c1 | > 11 µM (inactive)
39 | Cc1cc(C(=O)O)ccc1-c1ccc(/C=C2\NC(=O)N(Cc3ccc(F)cc3)C2=O)o1 | > 11 µM (inactive)
40 | CC(C)N1CCc2c(sc(NC(=O)c3ccc(S(=O)(=O)N(C)CC4CCCO4)cc3)c2C(N)=O)C1 (configuration not stated) | > 11 µM (inactive)
41 | O=C(N/N=C/c1c(O)n(Cc2ccco2)c(=O)[nH]c1=O)c1ccccc1O | > 11 µM (inactive)
42 | CC(=O)c1ccc(C(=O)Nc2sc3c(c2C(N)=O)CCN(Cc2ccccc2)C3)cc1 | > 11 µM (inactive)
43 | CCc1ccc(C(=O)NNC(=O)c2ccc(=O)n(C)n2)cc1 | > 11 µM (inactive)
44 | Cc1ccc(S(=O)(=O)N(CCCN2CCCC2=O)Cc2cc3c(C)ccc(C)c3[nH]c2=O)cc1 | > 11 µM (inactive)
45 | COc1ccc(C2CC(=O)C(C=NCCCO)=C(O)C2)cc1 (configuration not stated) | > 11 µM (inactive)
46 | COCCn1c(N)c(NCc2ccccc2)c(=O)[nH]c1=O | > 11 µM (inactive)

Row | SMILES | EC50
47 | Cc1cc(/C=C2\C(=O)NC(=O)N(c3ccccc3)C2=O)c(C)n1-c1ccc(C(=O)O)c(Cl)c1 | > 11 µM (inactive)
48 | COc1cc(/C=N/c2oc(-c3ccccc3)cc2C#N)ccc1O | > 11 µM (inactive)
49 | CCN(CC)C(=O)c1sc2nc(-c3cccs3)cc(-c3cccs3)c2c1N | > 11 µM (inactive)
50 | O=C1N=c2ccc(Br)cc2=C1c1sc(=O)[nH]c1O | > 11 µM (inactive)
51 | CC1(O)C(=O)C=C2C=C(C3CC3)OC=C2C1=O (configuration not stated) | > 11 µM (inactive)
52 | Cc1nc(S/C(=C/c2ccc(-c3cc(Cl)ccc3C)o2)C(=O)O)n[nH]1 | > 11 µM (inactive)
53 | N#CC1=C(N)OC2=C(C(=O)CC(c3ccccc3)C2)C1c1ccc2c(c1)OCO2 (configuration not stated) | > 11 µM (inactive)
54 | Cc1ccc2[nH]c3c(c2c1)CN(C(=O)CN1CCN(C(=O)c2ccco2)CC1)CC3 | > 11 µM (inactive)
55 | Oc1ccc(/C=C/c2cc(O)cc(O)c2)cc1 | > 11 µM (inactive)
56 | Cc1c(C(=O)O)cccc1-n1c(C)cc(/C=C(/C#N)C(=O)NCc2ccccc2)c1C | > 11 µM (inactive)
57 | CN(C)CCCN1C(=O)c2cccc3c(Br)ccc(c23)C1=O | > 11 µM (inactive)
58 | O=C(c1coc(=O)c(Br)c1)N1CCCc2ccccc21 | > 11 µM (inactive)
59 | CCN(CC)C(=O)CSc1nnc2nnc3cc(OC)ccc3n12 | > 11 µM (inactive)
60 | COc1cc2c(cc1C1C(C#N)=C(N)OC3=C1C(=O)CC(C)(C)C3)OCO2 (configuration not stated) | > 11 µM (inactive)
61 | CC1=NN(C(N)=S)C(=O)C1N=Nc1c(Cl)cc([N+](=O)[O-])cc1Cl (configuration not stated) | > 11 µM (inactive)
62 | Oc1ccc2ccccc2c1C=Nc1ccc(N2CCOCC2)cc1 | > 11 µM (inactive)
63 | O=C1NC(=O)N(c2ccccc2)C(=O)/C1=C\c1ccc2c3c(cccc13)CC2 | > 11 µM (inactive)
64 | O=C(NC1CC1)C1Nc2ccc(OC(F)(F)F)cc2C2C=CCC12 (configuration not stated) | > 11 µM (inactive)
65 | CCOc1cc2c(cc1/C=C(/C#N)c1ccc(C(=O)O)cc1)OCO2 | > 11 µM (inactive)
66 | COC(=O)CCC(=O)OC1(C)C(=O)C=C2C=C(C3CC3)N(c3ccc(CO)cc3)C=C2C1=O (configuration not stated) | > 11 µM (inactive)
67 | CCN(CC)C(=O)c1ccc2c(c1)C1C(Cl)C(Sc3ccccc3[N+](=O)[O-])CC1C(C(=O)O)N2 (configuration not stated) | > 11 µM (inactive)
